From patent US10065990B2, “Cyclic peptide compound, and preparation method, pharmaceutical composition and use thereof” (HANGZHOU GUANYU BIO-MEDICAL CO., LTD, priority 2013, dated 2018)

Experiments:
HDAC7 = target: T1, HDAC7 (Homo sapiens, UniProt Q8WUI4); test: HDAC biochemical activity measurement (fluorescent substrate deacetylation);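 further: fluorogenic deacetylation assay using acetyl-lysine substrate at 20 µM, enzyme and compound incubated 30 min at 37 °C, then developer added, fluorescence read at 360/460 nm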; details: HDAC7; 37° C. 30 minutes
T1 sequence (Q8WUI4 1-952): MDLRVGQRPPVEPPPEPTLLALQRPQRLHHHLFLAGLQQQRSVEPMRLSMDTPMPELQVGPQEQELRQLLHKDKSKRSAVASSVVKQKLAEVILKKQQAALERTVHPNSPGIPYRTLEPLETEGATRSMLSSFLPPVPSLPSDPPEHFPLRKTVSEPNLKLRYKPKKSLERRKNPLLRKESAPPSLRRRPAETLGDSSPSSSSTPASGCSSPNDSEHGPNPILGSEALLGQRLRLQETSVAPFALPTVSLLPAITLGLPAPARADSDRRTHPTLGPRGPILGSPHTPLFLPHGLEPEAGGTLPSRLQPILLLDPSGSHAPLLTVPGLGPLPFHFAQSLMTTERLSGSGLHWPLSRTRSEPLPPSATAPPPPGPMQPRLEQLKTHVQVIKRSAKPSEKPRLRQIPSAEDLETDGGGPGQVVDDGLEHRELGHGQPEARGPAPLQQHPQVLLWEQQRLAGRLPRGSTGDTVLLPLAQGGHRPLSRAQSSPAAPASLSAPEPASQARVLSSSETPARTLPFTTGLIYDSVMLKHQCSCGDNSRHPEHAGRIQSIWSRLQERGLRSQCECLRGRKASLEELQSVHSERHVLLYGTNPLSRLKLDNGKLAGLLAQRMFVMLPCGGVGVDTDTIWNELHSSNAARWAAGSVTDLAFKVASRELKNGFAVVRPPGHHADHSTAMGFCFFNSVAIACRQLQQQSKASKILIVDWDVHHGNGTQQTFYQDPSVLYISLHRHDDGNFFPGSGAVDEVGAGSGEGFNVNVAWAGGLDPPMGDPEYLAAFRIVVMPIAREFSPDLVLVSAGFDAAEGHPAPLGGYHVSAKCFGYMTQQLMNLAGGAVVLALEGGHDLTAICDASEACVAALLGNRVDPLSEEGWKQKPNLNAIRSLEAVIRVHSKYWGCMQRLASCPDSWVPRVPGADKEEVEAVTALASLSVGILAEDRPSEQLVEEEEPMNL

[1] = tested on: BGC-823 (human gastric cancer cells); test: MTT cancer cell growth inhibition; assay type: cell-based; details: Homo sapiens, BGC-823, 72 h, BGC-823 cells, MTT, 72 hours incubation; read-out: GI50 BG
From the text: (§1) MTT assay principle is yellow MTT can penetrate membrane into the cell, succinic dehydrogenase of the mitochondria in living cells can make exogenous MTT reduction of insoluble in water of blue-violet acicular formazan for crystallization and deposition in the cell, crystallization can be dissolved dimethyl sulfoxide (DMSO) solution, detected its absorbance at 490 nm/570 nm wavelength by enzyme-linked immunosorbent assay, which can reflect the number of cells.
(§2) Using DMEM+10% FBS culture medium or using 1640+10% FBS culture, respectively.
(§3) a) Cells were seeded in 96-well plates with the inoculation of 1500/well, 190 μl/hole, 37° C., 5% of CO2 incubator overnight;
(§4) b) The next day each well was added 10 μl of different drugs. The final concentration of drug was 10^−5˜10^−10M, three parallel holes; 37° C., 5% CO2 culture incubator for 72 hours incubation;
(§5) c) Per well was added 20 μl 5 mg/ml of MTT, 37° C., 5% CO2 culture incubator for 4 hours incubation;
(§6) d) The supernatant was discarded. Each well was added 100 μl of DMSO and oscillation;
(§7) e) 570 nm readings. Calculate cell viability. GI50 calculation based on the results.

[2] = tested on: K562 (human leukemia cells); test: MTT cancer cell growth inhibition; assay type: cell-based; details: Homo sapiens, K562, 72 h, MTT, 72 hours incubation, K562 cells; read-out: GI50 K562
From the text: as §1, §2, §3, §4, §5, §6, §7

[3] = tested on: HT1080 (human fibrosarcoma cells); test: MTT cancer cell growth inhibition; assay type: cell-based; details: Homo sapiens, HT-1080, 72 h, HT1080 cells, MTT, 72 hours incubation; read-out: GI50 HT1
From the text: as §1, §2, §3, §4, §5, §6, §7

[4] = tested on: PANC-1 (Pac-1, human pancreatic cancer cells); test: MTT cancer cell growth inhibition; assay type: cell-based; details: Homo sapiens, PANC-1, 72 h, PANC-1 cells, MTT, 72 hours incubation; read-out: GI50 PAN
From the text: as §1, §2, §3, §4, §5, §6, §7

[5] = tested on: lncap (prostate cancer cells); test: MTT cancer cell growth inhibition; assay type: cell-based; details: Homo sapiens, LNCaP, 72 h, lncap cells, MTT, 72 hours incubation; read-out: GI50 lnca
From the text: as §1, §2, §3, §4, §5, §6, §7

[6] = tested on: Hela (human cervical cancer cells); test: MTT cancer cell growth inhibition; assay type: cell-based; details: Homo sapiens, HeLa, 72 h, Hela cells, MTT, 72 hours incubation; read-out: GI50 Hela
From the text: as §1, §2, §3, §4, §5, §6, §7

[7] = tested on: A549 (human lung cancer cells); test: MTT cancer cell growth inhibition; assay type: cell-based; details: Homo sapiens, A549, 72 h, A549 cells, MTT, 72 hours incubation; read-out: GI50 A54
From the text: as §1, §2, §3, §4, §5, §6, §7

[8] = tested on: KBM5-T315I (human chronic myelogenous leukemia); test: MTT cancer cell growth inhibition; assay type: cell-based; details: Homo sapiens, 72 h, MTT, 72 hours incubation, KBM5-T315I cells; read-out: GI50 KBM5-T315I
From the text: as §1, §2, §3, §4, §5, §6, §7

[9] = tested on: KBM-5 (human chronic myelogenous leukemia); test: MTT cancer cell growth inhibition; assay type: cell-based; details: Homo sapiens, KBM5, 72 h, MTT, 72 hours incubation, KBM-5 cells; read-out: GI50 KBM-5
From the text: as §1, §2, §3, §4, §5, §6, §7

[10] = tested on: MDA-MB-231 (breast cancer cells); test: MTT cancer cell growth inhibition; assay type: cell-based; details: Homo sapiens, MDA-MB-231, 72 h, read-out: GI50 MDA-MB-231, MTT, 72 hours incubation, MDA-MB-231 cells
From the text: as §1, §2, §3, §4, §5, §6, §7

[11] = tested on: DU145 (human prostate cancer cells); test: MTT cancer cell growth inhibition; assay type: cell-based; details: Homo sapiens, DU-145, 72 h, DU145 cells, MTT, 72 hours incubation; read-out: GI50 Du1
From the text: as §1, §2, §3, §4, §5, §6, §7

[12] = tested on: H1975 (non-small cell lung adenocarcinoma); test: MTT cancer cell growth inhibition; assay type: cell-based; details: Homo sapiens, NCI-H1975, 72 h, MTT, 72 hours incubation, H1975 cells; read-out: GI50 H1975
From the text: as §1, §2, §3, §4, §5, §6, §7

[13] = tested on: U937 (human leukemia cells); test: MTT cancer cell growth inhibition; assay type: cell-based; details: Homo sapiens, U-937, 72 h, U937 cells, MTT, 72 hours incubation; read-out: GI50 U93
From the text: as §1, §2, §3, §4, §5, §6, §7

[14] = tested on: Bel-7402 (human hepatoma cells); test: MTT cancer cell growth inhibition; assay type: cell-based; details: Homo sapiens, Bel-7402, 72 h, MTT, 72 hours incubation, Bel-7402 cells; read-out: GI50 Bel-7402
From the text: as §1, §2, §3, §4, §5, §6, §7

[15] = tested on: N-87 (human gastric cancer cells); test: MTT cancer cell growth inhibition; assay type: cell-based; details: Homo sapiens, 72 h, MTT, 72 hours incubation, N-87 cells; read-out: GI50 N-87
From the text: as §1, §2, §3, §4, §5, §6, §7

[16] = tested on: HCC827 (human non-small cell lung cancer cells); test: MTT cancer cell growth inhibition; assay type: cell-based; details: Homo sapiens, HCC827, 72 h, MTT, 72 hours incubation, HCC827 cells; read-out: GI50 HCC827
From the text: as §1, §2, §3, §4, §5, §6, §7

[17] = tested on: SGC-7901 (human gastric cancer cells); test: MTT cancer cell growth inhibition; assay type: cell-based; details: Homo sapiens, SGC-7901, 72 h, MTT, 72 hours incubation, SGC-7901 cells; read-out: GI50 SGC-7901
From the text: as §1, §2, §3, §4, §5, §6, §7

[18] = tested on: MCF-7 (human breast cancer cells); test: MTT cancer cell growth inhibition; assay type: cell-based; details: Homo sapiens, MCF7, 72 h, MCF-7 cells, 72 hours incubation, read-out: GI50 MCF
From the text: as §1, §2, §3, §4, §5, §6, §7

[19] = tested on: MOLT-4 (human acute lymphoblastic leukemia cells); test: MTT cancer cell growth inhibition; assay type: cell-based; details: Homo sapiens, MOLT-4, 72 h, MOLT-4 cells, MTT, 72 hours incubation; read-out: GI50 Mol
From the text: as §1, §2, §3, §4, §5, §6, §7

[20] = tested on: Huh-7 (human hepatoma cells); test: MTT cancer cell growth inhibition; assay type: cell-based; details: Homo sapiens, Huh-7, 72 h, MTT, 72 hours incubation, Huh-7 cells; read-out: GI50 Huh-7
From the text: as §1, §2, §3, §4, §5, §6, §7

SMILES	IC50 HDAC7 (HDAC7)	GI50 [1] [nM]	GI50 [2] [nM]	GI50 [3] [nM]	GI50 [4] [nM]	GI50 [5] [nM]	GI50 [6] [nM]	GI50 [7] [nM]	GI50 [8] [nM]	GI50 [9] [nM]	GI50 [10] [nM]	GI50 [11] [nM]	GI50 [12] [nM]	GI50 [13] [nM]	GI50 [14] [nM]	GI50 [15] [nM]	GI50 [16] [nM]	GI50 [17] [nM]	GI50 [18] [nM]	GI50 [19] [nM]	other results
C/C=C1\NC(=O)c2ccc(SC)c(n2)CNC(=O)C[C@@H](/C=C/CCSC(=O)CCC)OC(=O)[C@H](C(C)C)NC1=O [Compound 161]	no activity	20	31	50	10	70	10	80	12	13	46	20	57	60	47	37	65	91	70	30	GI50 [20]: 79 nM
C/C=C1\NC(=O)c2nc(cc(SC)n2)CNC(=O)C[C@@H](/C=C/CCSC(C)=O)OC(=O)[C@H](C)NC1=O [Compound 218]	no activity	60	36	20	50	50	80	30	43	21	27	50	38	60	62	65	37	53	40	90	GI50 [20]: 21 nM
C/C=C1\NC(=O)c2cc(SC)cc(n2)CNC(=O)C[C@@H](/C=C/CCS)OC(=O)[C@H](C(C)C)NC1=O [Compound 227]	no activity	50	23	70	10	20	70	20	55	49	51	60	35	40	72	19	45	53	20	60	GI50 [20]: 17 nM
C/C=C1\NC(=O)c2ccc(SC)c(n2)CNC(=O)C[C@@H](/C=C/CCSC(=O)CC)OC(=O)[C@H](C(C)C)NC1=O [Compound 164]	no activity	340	62	20	80	30	20	60	47	73	96	50	81	60	38	41	28	28	30	50	GI50 [20]: 95 nM
